Results taken from patent US5342850A, “Thiazolidine-2,4-dione derivatives, their salts and their preparation processes” (Kyorin Pharmaceutical Co., Ltd., priority 1991, dated 1994).

Experiments:
blood glucose [1] = test: Enhancement of insulin sensitivity in rats; assay type: in vivo; details: 10 mg/kg/day p.o. once daily for 5 days; fasted 18 hours; insulin 0.1 unit/kg i.p.; n=5; *P < 0.01
Procedure: Blood samples were collected from the tail vein 0 and 1 hour after the injection of insulin for the determination of blood glucose (Table 1).

blood glucose [2] = test: Improvement of glucose tolerance in genetically obese mice (OGTT); assay type: in vivo, Genetically obese mice (CS57BL ob/ob mice); details: fasted 18 hours, 2 g/kg glucose orally, blood at 0, 30, 60, 120 min
Procedure: Improvement of glucose tolerance in genetically obese mice
Genetically obese mice (CS57BL ob/ob mice) were orally administered with the compound of Example 23 once daily for 5 days at 10, 30 or 100 mg/kg/day, respectively. They were fasted for 18 hours and then 2 g/kg of glucose was orally administered. Blood samples were collected from the tail vein 0, 30, 60 and 120 minutes after the administration of glucose for the determination of blood glucose (Table 2).

[3] = biological target: T1, aldose reductase extracted from rat lens (Rattus norvegicus, UniProt P07943); test: Inhibition of aldose reductase in vitro; assay type: biochemical; details: method of Hyman and Kinoshita
T1 construct: aldose reductase extracted from rat lens; from tissue; host or cells: rat lens
Description: Inhibition of aldose reductase in vitro
According to the method of Hyman and Kinoshita (J. Biol. Chem., 240, 877, 1965), inhibitory activity of the compound of Example 23 on aldose reductase extracted from rat lens was investigated. As a result, the following IC50 value was obtained (Table 3).

[4] = system: sorbitol content in nerve; test: Inhibition on sorbitol accumulation in nerve of diabetic rats; assay type: in vivo; details: Rattus norvegicus, po, 336 h, streptozotocin rats, 4, 16 or 64 mg/kg/day p.o. once daily 2 weeks
Procedure: (§1) Inhibition on sorbitol accumulation in tissues of diabetic rats
(§2) After diabetic rats were prepared by injecting streptozotocin, they were orally administered with the compound of Example 23 once daily 2 weeks at 4, 16 or 64 mg/kg/day, respectively. The sorbitol content in nerve and retina was determined to calculate ED50 value (Table 4).

[5] = system: sorbitol content in retina; test: Inhibition on sorbitol accumulation in retina of diabetic rats; assay type: in vivo; details: Rattus norvegicus, po, 336 h, streptozotocin rats, 4, 16 or 64 mg/kg/day p.o. once daily 2 weeks
Procedure: as §1, §2

SMILES: O=C1NC(=O)C(c2ccc(NC(=O)c3ccc(Cl)cc3Cl)cc2)S1 (stereo not shown) [Example 23]
- 0 hour value - 1 hour value (blood glucose) (blood glucose [1]): 19.4 ± 1.5 mg %
- OGTT (% of control) (blood glucose [2]; 10 mg/kg/day p.o. once daily for 5 days): 93.5 % of control
- OGTT (% of control) (blood glucose [2]; 30 mg/kg/day p.o. once daily for 5 days): 89.2 % of control
- OGTT (% of control) (blood glucose [2]; 100 mg/kg/day p.o. once daily for 5 days): 74.1 % of control
- IC50 [3]: 90 nM
- ED50 [4]: 14.5 mg/kg
- ED50 [5]: 26.5 mg/kg
